Source: patent EP0441218A2, “Anthracycline-glycosyl prodrugs, process for their preparation and their use in combination with functionalised tumour-specific enzyme conjugates” (BEHRINGWERKE Aktiengesellschaft, priority 1990, dated 1991)

How the values were obtained:
[1] = biological target: T1, Human-Plazenta-α-Galactosidase A (Homo sapiens, UniProt P06280); assay: Cleavage of the prodrug by human placenta α-galactosidase A (HPLC analysis); format: biochemical; conditions: placenta alpha-galactosidase a, 0.03 U/ml α-Galactosidase A, Phosphat-Puffer pH 5, 37 °C, dark, extrapolated value, read-out: Halbwertszeit der Spaltung (converted)
T1 construct: der aus Human-Plazenta isolierten α-Galactosidase A; from tissue; host or cells: human placenta
T1 sequence (P06280 32-429): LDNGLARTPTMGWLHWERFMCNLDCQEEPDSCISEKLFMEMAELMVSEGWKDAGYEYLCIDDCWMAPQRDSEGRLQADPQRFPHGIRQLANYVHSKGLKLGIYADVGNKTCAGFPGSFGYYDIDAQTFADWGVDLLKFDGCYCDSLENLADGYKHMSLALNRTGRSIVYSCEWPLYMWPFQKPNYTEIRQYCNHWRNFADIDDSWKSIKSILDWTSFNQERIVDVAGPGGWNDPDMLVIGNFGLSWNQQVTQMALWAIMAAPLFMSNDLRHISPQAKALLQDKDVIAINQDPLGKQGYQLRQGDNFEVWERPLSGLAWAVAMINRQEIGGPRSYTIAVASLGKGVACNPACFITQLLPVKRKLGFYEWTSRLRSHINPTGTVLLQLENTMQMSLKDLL
Experimental: (§1) Spaltung von 14-O-α-D-Galacto-hexo-pyranosyl-doxorubicin (Verbindung 10) durch Human-Plazenta-α-Galactosidase A 0.5 mg der Ausgangsverbindung wurden in 0.5 ml Phosphat-Puffer, pH 5, enthaltend 0.03 U/ml der aus Human-Plazenta isolierten α-Galactosidase A gelöst und bei 37 °C im Dunklen inkubiert. Nach verschiedenen Inkubationszeiten wurden Proben des Inkubationsansatzes entnommen und direkt mittels Hochdruckflüssigkeitschromatographie analysiert (Säule: Nucleosil 100 (RP 18, 5 µm Teilchendurchmesser, 125 x 4.6 mm; Mobile Phase: Gradient aus Lösung A und B: 0 min - 20% A, 10 min - 30% A, 15 min - 30% A, Lösung A = 100% Acetonitril, Lösung B = 0.02 m Phosphat-Puffer pH 3.0; Flußrate: 1 ml/min; Detektion: Fluoreszenz, Ex 495 nm, Em 560 nm). Die Retentionszeit der Ausgangsverbindung betrug unter diesen Chromatographiebedingungen 9.0 min. Die während der Inkubation entstehende Verbindung wies eine mit Adriamycin identische Retentionszeit von 12.6 min auf.
(§2) Die Halbwertszeit der Spaltung betrug unter dem beschriebenen Bedingungen ca. 54 h (extrapolierter Wert). Bei der Inkubation der Ausgangsverbindung in enzymfreier Pufferlösung blieb die Verbindung über diesen Zeitraum stabil.

[2] = biological target: T2, Kaffeebohnen-α-Galactosidase (Coffea arabica, UniProt Q42656); assay: Cleavage of the prodrug by coffee bean α-galactosidase (HPLC analysis); format: biochemical; conditions: coffee bean alpha-galactosidase; 0.03 U/ml Kaffeebohnen-α-Galactosidase (Sigma), Phosphat-Puffer pH 5, 37 °C; read-out: Halbwertszeit der Spaltung
T2 construct: purchased Sigma
T2 sequence (Q42656 16-378): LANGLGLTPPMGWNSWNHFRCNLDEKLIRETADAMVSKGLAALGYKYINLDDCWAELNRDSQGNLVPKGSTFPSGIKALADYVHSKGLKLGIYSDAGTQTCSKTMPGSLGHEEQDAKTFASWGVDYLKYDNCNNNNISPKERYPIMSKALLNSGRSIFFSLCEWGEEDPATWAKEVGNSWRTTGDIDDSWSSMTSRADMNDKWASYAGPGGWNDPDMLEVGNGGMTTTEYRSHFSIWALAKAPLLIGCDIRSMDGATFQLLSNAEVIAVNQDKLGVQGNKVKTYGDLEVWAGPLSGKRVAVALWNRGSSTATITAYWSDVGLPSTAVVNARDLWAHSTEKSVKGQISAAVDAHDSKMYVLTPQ
Experimental: as §1
Spaltung von 14-O-α-D-Galacto-hexo-pyranosyl-doxorubicin (Verbindung 10) durch Kaffebohnen-α-Galactosidase Die Ausgangsverbindung wurde unter den gleichen wie in Beispiel 11 beschriebenen Bedingungen in Gegenwart von 0.03 U/ml Kaffeebohnen-α-Galactosidase (Sigma) inkubiert. Die Halbwertszeit der Spaltung betrug in Gegenwart des Enzyms ca. 20 min.

[3] = Stability of the prodrug on incubation in enzyme-free buffer; format: physicochemical; conditions: Phosphat-Puffer pH 5, 37 °C, without enzyme, over the same period (ca. 54 h)
Experimental: as §1, §2

COc1cccc2c1C(=O)c1c(O)c3c(c(O)c1C2=O)C[C@@](O)(C(=O)CO[C@H]1O[C@H](CO)[C@H](O)[C@H](O)[C@H]1O)C[C@@H]3O[C@H]1C[C@H](N)[C@H](O)[C@H](C)O1 [Verbindung 10, 14-O-α-D-Galactohexopyranosyl-doxorubicin]
half-life [1]: ~54 h
half-life [2]: ~0.333 h
Stability in enzymfreier Pufferlösung [3]: stabil
